Assay results published in ChEMBL document CHEMBL4052645, “Discovery of potent and efficacious pyrrolopyridazines as dual JAK1/3 inhibitors” (Bioorg Med Chem Lett, 2017).

How the values were obtained:
[1] = molecular target: T1, Tyrosine-protein kinase JAK3 (Homo sapiens, UniProt P52333); experiment: Inhibition of JAK3 (unknown origin) using CSKtide as substrate after 30 mins in presence of [gamma33P]ATP by liquid scintillation counting method
T1 sequence (P52333 whole entry): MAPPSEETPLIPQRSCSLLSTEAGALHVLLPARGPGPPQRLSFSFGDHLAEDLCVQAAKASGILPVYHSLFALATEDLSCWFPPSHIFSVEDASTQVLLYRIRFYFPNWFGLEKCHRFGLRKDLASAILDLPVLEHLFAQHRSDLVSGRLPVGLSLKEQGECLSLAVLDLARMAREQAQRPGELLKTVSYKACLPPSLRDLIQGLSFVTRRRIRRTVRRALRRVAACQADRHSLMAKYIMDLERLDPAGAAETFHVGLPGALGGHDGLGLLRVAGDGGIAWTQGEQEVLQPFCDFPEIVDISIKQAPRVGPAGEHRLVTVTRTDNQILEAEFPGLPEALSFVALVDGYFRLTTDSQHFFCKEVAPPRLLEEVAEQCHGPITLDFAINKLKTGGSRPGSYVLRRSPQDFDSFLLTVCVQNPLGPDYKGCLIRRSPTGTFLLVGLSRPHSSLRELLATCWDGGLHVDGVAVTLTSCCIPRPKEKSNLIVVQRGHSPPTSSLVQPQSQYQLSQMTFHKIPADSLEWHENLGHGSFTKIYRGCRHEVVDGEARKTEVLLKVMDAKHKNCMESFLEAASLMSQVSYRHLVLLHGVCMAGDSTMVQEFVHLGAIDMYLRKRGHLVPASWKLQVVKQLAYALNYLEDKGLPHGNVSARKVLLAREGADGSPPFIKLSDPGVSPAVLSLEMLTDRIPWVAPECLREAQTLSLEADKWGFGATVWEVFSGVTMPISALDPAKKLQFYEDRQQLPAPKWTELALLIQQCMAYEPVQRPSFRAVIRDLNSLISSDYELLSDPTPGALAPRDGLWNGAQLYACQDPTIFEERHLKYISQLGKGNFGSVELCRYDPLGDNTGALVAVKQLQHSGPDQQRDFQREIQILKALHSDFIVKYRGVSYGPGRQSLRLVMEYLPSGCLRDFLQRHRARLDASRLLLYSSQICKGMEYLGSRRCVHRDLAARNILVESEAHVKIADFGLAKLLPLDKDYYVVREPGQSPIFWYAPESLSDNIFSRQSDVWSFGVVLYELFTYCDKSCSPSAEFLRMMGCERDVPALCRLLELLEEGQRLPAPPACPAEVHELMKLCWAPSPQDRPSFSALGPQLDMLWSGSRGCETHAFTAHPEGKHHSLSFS

[2] = molecular target: Serine/threonine-protein kinase 4 (Homo sapiens) (UniProt Q13043); experiment: Inhibition of wild-type human full length MST1 (M1 to F487 residues) expressed in bacterial expression system assessed as residual activity at 50 nM by Kinomescan method relative to control
[3] = molecular target: Mitogen-activated protein kinase kinase kinase 2 (Homo sapiens) (UniProt Q9Y2U5); experiment: Inhibition of wild-type human partial length MAP3K2 (S315 to H619 residues) expressed in mammalian expression system assessed as residual activity at 50 nM by Kinomescan method relative to control
[4] = molecular target: Ribosomal protein S6 kinase alpha-6 (Homo sapiens) (UniProt Q9UK32); experiment: Inhibition of wild-type human partial length C-terminal RSK4 kinase domain 2 (I401 to Y711 residues) expressed in bacterial expression system assessed as residual activity at 50 nM by Kinomescan method relative to control
[5] = molecular target: Death-associated protein kinase 1 (Homo sapiens) (UniProt P53355); experiment: Inhibition of wild-type human partial length DAPK1 (M1 to F296 residues) expressed in bacterial expression system assessed as residual activity at 50 nM by Kinomescan method relative to control
[6] = molecular target: Glycogen synthase kinase-3 alpha (Homo sapiens) (UniProt P49840); experiment: Inhibition of wild-type human full length GSK3A (M1 to S483 residues) expressed in bacterial expression system assessed as residual activity at 50 nM by Kinomescan method relative to control
[7] = molecular target: Ephrin type-B receptor 6 (Homo sapiens) (UniProt O15197); experiment: Inhibition of wild-type human partial length EPHB6 (Q634 to P948 residues) expressed in mammalian expression system assessed as residual activity at 50 nM by Kinomescan method relative to control
[8] = molecular target: Maternal embryonic leucine zipper kinase (Homo sapiens) (UniProt Q14680); experiment: Inhibition of wild-type human full length MELK (M1 to V651 residues) expressed in bacterial expression system assessed as residual activity at 50 nM by Kinomescan method relative to control
[9] = molecular target: Serine/threonine-protein kinase Nek3 (Homo sapiens) (UniProt P51956); experiment: Inhibition of wild-type human full length NEK3 (M1 to R506 residues) expressed in mammalian expression system assessed as residual activity at 50 nM by Kinomescan method relative to control
[10] = molecular target: Serine/threonine-protein kinase PLK3 (Homo sapiens) (UniProt Q9H4B4); experiment: Inhibition of wild-type human partial length PLK3 (A42 to L334 residues) expressed in mammalian expression system assessed as residual activity at 50 nM by Kinomescan method relative to control
[11] = molecular target: Myosin light chain kinase 2, skeletal/cardiac muscle (Homo sapiens) (UniProt Q9H1R3); experiment: Inhibition of wild-type human partial length SKMLCK (D258 to K570 residues) expressed in bacterial expression system assessed as residual activity at 50 nM by Kinomescan method relative to control
[12] = molecular target: Receptor-interacting serine/threonine-protein kinase 1 (Homo sapiens) (UniProt Q13546); experiment: Inhibition of wild-type human partial length RIPK1 (M1 to K305 residues) expressed in bacterial expression system assessed as residual activity at 50 nM by Kinomescan method relative to control
[13] = molecular target: Serine/threonine-protein kinase tousled-like 2 (Homo sapiens) (UniProt Q86UE8); experiment: Inhibition of wild-type human partial length TLK2 (E424 to N749 residues) expressed in bacterial expression system assessed as residual activity at 50 nM by Kinomescan method relative to control
[14] = molecular target: Epithelial discoidin domain-containing receptor 1 (Homo sapiens) (UniProt Q08345); experiment: Inhibition of wild-type human partial length DDR1 (R565 to V876 residues) expressed in bacterial expression system assessed as residual activity at 50 nM by Kinomescan method relative to control
[15] = molecular target: Ephrin type-B receptor 3 (Homo sapiens) (UniProt P54753); experiment: Inhibition of wild-type human partial length EPHB3 (Q599 to T928 residues) expressed in bacterial expression system assessed as residual activity at 50 nM by Kinomescan method relative to control
[16] = molecular target: cAMP-dependent protein kinase catalytic subunit alpha (Homo sapiens) (UniProt P17612); experiment: Inhibition of wild-type human partial length PKACA (G10 to F351 residues) expressed in bacterial expression system assessed as residual activity at 50 nM by Kinomescan method relative to control
[17] = molecular target: Tyrosine-protein kinase receptor TYRO3 (Homo sapiens) (UniProt Q06418); experiment: Inhibition of wild-type human partial length TYRO3 (S497 to T814 residues) expressed in bacterial expression system assessed as residual activity at 50 nM by Kinomescan method relative to control

Chain of Serine/threonine-protein kinase PLK3 (Homo sapiens) (Q9H4B4 whole entry, looked up, the tested form may be a part): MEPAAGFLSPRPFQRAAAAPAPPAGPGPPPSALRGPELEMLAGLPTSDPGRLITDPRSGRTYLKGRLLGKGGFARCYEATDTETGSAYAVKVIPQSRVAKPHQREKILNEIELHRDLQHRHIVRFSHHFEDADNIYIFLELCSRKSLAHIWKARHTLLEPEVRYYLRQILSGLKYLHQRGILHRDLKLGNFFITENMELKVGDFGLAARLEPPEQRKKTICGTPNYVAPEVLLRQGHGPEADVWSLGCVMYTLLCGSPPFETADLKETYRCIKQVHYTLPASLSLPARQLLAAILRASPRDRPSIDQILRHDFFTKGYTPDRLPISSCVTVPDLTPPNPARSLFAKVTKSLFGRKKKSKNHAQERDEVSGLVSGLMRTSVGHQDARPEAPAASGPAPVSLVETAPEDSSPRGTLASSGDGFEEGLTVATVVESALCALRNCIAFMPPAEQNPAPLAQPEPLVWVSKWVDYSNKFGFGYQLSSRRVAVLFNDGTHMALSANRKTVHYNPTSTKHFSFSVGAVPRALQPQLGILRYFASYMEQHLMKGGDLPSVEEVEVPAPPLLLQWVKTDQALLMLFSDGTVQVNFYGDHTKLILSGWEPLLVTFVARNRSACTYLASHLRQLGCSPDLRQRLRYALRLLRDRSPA
Chain of Epithelial discoidin domain-containing receptor 1 (Homo sapiens) (Q08345 whole entry, the tested form may be a part): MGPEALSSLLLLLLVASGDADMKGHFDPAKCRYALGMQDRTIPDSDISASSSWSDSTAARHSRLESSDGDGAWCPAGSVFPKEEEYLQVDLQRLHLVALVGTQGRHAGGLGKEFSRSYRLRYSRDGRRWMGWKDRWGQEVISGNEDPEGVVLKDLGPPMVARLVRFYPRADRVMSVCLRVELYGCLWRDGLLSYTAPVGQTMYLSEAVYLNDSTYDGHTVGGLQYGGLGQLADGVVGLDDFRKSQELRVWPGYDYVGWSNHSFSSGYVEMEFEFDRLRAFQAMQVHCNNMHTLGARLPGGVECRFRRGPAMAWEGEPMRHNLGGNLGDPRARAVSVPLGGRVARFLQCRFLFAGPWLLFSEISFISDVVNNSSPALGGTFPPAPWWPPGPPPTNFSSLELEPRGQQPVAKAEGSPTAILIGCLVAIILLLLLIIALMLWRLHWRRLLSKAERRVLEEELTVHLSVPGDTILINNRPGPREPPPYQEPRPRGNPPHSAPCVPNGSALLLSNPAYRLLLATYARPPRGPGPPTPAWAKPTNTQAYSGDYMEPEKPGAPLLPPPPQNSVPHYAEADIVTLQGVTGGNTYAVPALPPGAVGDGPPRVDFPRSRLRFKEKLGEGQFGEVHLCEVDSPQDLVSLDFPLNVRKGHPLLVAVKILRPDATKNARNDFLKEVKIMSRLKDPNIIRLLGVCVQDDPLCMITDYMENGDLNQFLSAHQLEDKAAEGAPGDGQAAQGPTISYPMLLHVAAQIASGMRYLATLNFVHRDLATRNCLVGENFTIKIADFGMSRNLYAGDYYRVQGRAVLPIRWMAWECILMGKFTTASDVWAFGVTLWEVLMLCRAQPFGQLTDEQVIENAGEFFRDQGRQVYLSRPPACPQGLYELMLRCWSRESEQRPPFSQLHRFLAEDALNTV
Chain of Death-associated protein kinase 1 (Homo sapiens) (P53355 whole entry, looked up, the tested form may be a part): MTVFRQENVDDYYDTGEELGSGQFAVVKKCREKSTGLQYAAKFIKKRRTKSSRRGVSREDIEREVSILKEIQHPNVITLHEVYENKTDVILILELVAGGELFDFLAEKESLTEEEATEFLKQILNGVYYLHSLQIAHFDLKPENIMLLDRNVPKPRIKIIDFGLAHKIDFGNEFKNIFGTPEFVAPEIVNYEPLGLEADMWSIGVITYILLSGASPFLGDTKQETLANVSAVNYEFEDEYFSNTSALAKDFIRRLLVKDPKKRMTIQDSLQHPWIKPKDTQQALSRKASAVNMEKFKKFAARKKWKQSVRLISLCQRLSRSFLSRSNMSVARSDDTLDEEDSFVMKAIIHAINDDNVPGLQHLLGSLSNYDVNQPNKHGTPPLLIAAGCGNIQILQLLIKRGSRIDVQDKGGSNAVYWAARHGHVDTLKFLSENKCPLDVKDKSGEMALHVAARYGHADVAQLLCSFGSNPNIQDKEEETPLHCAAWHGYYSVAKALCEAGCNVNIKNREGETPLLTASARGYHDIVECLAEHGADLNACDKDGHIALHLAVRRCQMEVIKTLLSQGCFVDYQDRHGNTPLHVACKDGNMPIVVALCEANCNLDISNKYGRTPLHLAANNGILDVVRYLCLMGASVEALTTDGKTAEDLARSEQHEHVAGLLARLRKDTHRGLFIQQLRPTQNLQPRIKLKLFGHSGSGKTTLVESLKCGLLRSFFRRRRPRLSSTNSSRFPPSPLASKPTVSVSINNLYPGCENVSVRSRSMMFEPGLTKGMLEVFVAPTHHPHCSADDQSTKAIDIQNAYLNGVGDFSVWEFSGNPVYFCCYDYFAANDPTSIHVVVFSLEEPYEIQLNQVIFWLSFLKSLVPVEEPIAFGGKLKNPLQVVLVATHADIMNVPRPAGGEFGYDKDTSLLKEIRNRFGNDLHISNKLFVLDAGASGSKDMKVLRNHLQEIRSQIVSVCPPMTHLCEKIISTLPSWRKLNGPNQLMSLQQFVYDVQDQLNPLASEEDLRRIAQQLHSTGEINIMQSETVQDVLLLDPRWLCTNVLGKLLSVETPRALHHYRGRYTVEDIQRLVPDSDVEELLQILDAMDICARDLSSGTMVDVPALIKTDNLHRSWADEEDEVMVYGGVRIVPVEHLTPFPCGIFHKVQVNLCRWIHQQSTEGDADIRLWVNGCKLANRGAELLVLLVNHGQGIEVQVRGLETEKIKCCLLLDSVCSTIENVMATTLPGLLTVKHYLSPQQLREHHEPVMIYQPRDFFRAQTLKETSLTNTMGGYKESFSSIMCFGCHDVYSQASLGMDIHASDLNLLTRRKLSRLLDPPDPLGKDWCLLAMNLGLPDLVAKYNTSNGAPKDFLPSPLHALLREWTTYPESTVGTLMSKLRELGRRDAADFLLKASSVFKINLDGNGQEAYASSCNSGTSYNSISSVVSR
Chain of Maternal embryonic leucine zipper kinase (Homo sapiens) (Q14680 whole entry, looked up, the tested form may be a part): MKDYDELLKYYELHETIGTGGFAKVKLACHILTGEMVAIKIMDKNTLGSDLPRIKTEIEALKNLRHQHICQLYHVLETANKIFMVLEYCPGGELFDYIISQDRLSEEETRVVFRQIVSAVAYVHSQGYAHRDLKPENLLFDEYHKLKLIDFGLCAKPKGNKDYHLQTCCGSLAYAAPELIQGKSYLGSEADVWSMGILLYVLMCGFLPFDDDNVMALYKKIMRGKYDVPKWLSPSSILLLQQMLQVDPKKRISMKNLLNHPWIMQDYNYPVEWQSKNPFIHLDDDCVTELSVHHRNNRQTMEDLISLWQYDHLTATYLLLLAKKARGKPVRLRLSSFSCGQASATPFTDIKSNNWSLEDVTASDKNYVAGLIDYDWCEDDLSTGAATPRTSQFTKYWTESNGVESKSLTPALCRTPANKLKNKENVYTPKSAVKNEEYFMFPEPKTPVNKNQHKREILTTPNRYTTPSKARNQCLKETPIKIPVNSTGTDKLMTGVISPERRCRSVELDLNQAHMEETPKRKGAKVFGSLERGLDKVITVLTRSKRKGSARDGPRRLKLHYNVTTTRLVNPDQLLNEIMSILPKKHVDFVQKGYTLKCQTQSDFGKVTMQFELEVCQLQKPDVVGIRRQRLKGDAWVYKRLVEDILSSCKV
Chain of Serine/threonine-protein kinase 4 (Homo sapiens) (Q13043 whole entry, the tested form may be a part): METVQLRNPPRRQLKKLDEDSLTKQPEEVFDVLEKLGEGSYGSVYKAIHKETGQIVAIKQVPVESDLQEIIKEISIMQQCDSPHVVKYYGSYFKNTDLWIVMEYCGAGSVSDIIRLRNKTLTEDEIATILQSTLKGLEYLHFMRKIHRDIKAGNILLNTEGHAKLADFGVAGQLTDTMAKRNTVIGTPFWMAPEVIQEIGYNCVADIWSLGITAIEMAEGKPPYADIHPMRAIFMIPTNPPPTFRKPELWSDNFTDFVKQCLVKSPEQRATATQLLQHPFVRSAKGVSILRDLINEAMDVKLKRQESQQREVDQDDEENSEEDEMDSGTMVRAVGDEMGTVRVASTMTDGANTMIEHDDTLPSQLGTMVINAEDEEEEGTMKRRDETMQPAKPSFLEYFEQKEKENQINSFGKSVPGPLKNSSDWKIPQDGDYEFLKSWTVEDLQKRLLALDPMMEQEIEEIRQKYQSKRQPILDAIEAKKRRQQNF
Chain of Serine/threonine-protein kinase tousled-like 2 (Homo sapiens) (Q86UE8 whole entry, looked up, the tested form may be a part): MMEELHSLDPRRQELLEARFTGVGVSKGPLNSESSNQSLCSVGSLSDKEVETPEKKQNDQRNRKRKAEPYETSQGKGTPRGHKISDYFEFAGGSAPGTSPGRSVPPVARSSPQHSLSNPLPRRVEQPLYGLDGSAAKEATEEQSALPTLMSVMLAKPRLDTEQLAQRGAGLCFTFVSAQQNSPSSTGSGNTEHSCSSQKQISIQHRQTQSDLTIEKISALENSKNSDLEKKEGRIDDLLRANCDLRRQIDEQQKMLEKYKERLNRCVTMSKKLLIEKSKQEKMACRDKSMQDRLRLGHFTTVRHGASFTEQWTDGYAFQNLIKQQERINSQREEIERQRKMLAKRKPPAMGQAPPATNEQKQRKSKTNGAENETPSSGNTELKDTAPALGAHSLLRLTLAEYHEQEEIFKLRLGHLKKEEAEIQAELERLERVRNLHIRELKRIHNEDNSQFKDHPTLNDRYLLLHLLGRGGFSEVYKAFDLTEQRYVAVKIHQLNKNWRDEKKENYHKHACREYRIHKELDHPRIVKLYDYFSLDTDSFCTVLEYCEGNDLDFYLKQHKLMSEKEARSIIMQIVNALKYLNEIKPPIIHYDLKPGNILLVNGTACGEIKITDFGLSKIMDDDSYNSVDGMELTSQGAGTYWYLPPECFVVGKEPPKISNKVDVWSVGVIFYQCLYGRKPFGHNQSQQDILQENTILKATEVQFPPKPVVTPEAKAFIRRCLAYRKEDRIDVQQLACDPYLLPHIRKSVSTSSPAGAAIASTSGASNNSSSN

| Compound | IC50 [1] | Activity [2] | Activity [3] | Activity [4] | Activity [5] | Activity [6] | Activity [7] | Activity [8] | Activity [9] | Activity [10] | Activity [11] | Activity [12] | Activity [13] | Activity [14] | Activity [15] | Activity [16] | Activity [17] |
| --- | --- | --- | --- | --- | --- | --- | --- | --- | --- | --- | --- | --- | --- | --- | --- | --- | --- |
| CC1(C)[C@H](Nc2c(C(N)=O)cnn3cc(-c4ccccc4)cc23)CC[C@]1(C)N | 0.9 nM | 19% | 30% | 50% | 63% | 65% | 66% | 79% | 89% | 89% | 90% | 92% | 96% | 100% | 100% | 100% | 100% |
| COc1ccc(-c2cc3c(N[C@@H]4CC[C@](C)(N)C4(C)C)c(C(N)=O)cnn3c2)cn1 | 0.9 nM | 35% | 46% | 96% | 96% | 100% | 86% | 79% | 100% | 95% | 100% | 100% | 98% | 83% | 100% | 100% | 89% |
